Measured values: US10669266B2, “Oxadiazole inhibitors of HIPK2 for treating kidney fibrosis” (ICAHN SCHOOL OF MEDICINE AT MOUNT SINAI, priority 2017, dated 2020)

Assays:
[1] = system: Smad3 phosphorylation; assay: TGF-β1-induced Smad3 phosphorylation in hRTECs (western blot); assay type: cell-based, human; details: pretreatment, TGF-β1 5 ng/ml for 20 minutes
Method: (§1) HEK 293T (293T) cells (ATCC) were cultured in Dulbecco's Modified Eagle's medium (Invitrogen) containing 10% fetal bovine serum (FBS), 0.5% penicillin and streptomycin at 37° C. and 5% CO2 humidified environment. Human primary tubular cells (PromoCell GmbH, Heidelberg, Germany) were cultured in Renal Epithelial Cell Growth Medium-2 (Promocell GmbH) with supplements according to manufacturer's protocol human primary renal tubular epithelial cells with <5 passages were used for all studies. For HIV infection of hRTECs, pNL4-3:ΔG/P-EGFP, a gag/poi-deleted HIV-1 construct that contains EGFP in the gag open reading frame, and pHR-IRES-EGFP, a control EGFP construct, were used to generate the VSV-G pseudotyped virus. Cells were infected with HIV pseudotyped virus or control virus for 2 days before the treatment with test compound.
Cells were lysed in M-PER mammalian protein extraction reagent (#78501, Thermo Fisher Scientific, NY) containing protease inhibitor cocktail (#11836153001, Roche) and phosphatase inhibitors (50 mM NaF, 10 mM β-glycerophosphate, 5 mM sodium pyrophosphate, 2 mM Na3VO4). Total protein concentration was measured using the Bradford reagent (#500-0006, Bio-Rad). Proteins were separated on SDA-PAGE and transferred to nitrocellulose membrane. […]

[2] = system: Tg26 mice; assay: Tg26 (HIV-1 transgenic) mouse model of kidney disease; assay type: in vivo
Method: Tg26 mice of FVB/N genetic background bearing a defective HIV-1 provirus lacking gag-pol have been described by Feng et al. [J Am Soc Nephrol 2009; 20: 2138-2146]. Six-week old heterozygous Tg26 mice were used in this study. Wildtype littermates were used as controls. Mice in the treatment group received test compound dissolved in DMSO and diluted in saline (5% DMSO) by oral gavage at a dose of 200 μg/kg body weight per day. Mice in the control group received the same volume of 5% DMSO/saline vehicle. The mice were treated for a total of 4 weeks and sacrificed at age of 10 weeks. The UUO model was established in male C57BL/6 mice (The Jackson Laboratory) by ligation of the left ureter as described by Jin et al. [Lab Invest, 93: 801-811, 2013]. After the operation, UUO mice were randomly divided into control group (vehicle) and treatment group. Mice were fed with test compound by oral gavage at a dose of 200 μg/kg body weight per day for 7 days.
Immunofluorescence staining was conducted on paraffin-embedded kidney sections using standard procedures. Briefly, deparaffinized sections were incubated with primary antibody against collagen I (1:50, #NB6-00-4-8, Novus) at 4° C. overnight. After being washed, sections were incubated with Alexa Fluor488-labelled second antibody (1:200, #A11034, Invitrogen) at room temperature for 1 hour in darkness. After nuclei were stained with 4′, 6-diamidino-2-phenyllindole (DAPI) slides were mounted using Aqua PolyMount (Polysciences, Inc) and images were acquired using AxioVision IIe microscope with a digital camera.
Renal fibrosis was evaluated histologically by Sirius red staining on paraffin slides of mice kidney tissues according to the manufacturer's instructions (#ab150681, Abcam). Masson's trichrome staining on paraffin slices of mice kidney tissue was performed according to manufacturer's instructions (#87019, Thermo Scientific).
Tg26 mice are known to develop proteinuria starting from 4 weeks of age and the proteinuria peaks usually around 8-10 weeks of age. Tg26 mice also develop significant glomerulosclerosis and renal failure by 8-10 weeks of age. To determine whether compounds of the invention could reverse kidney injury that has been already developed, we started to treat Tg26 mice with either vehicle or Example 1 from age of 6 weeks for a total of 4 weeks, and the mice were sacrificed at age of 10 weeks.

[3] = system: lactate dehydrogenase (LDH) level in cell culture medium; assay: LDH cytotoxicity assay of cell culture medium; assay type: cell-based; details: up to 30 μM, 16 hours of incubation
Method: Medium LDH measurement was performed using LDH Cytotoxicity Assay Kit (ThermoFisher scientific, NY) according to manufacturer's instructions.
In order to rule out the possibility that the reduction in Smad3 activity is due to the cytotoxicity of increasing concentration of compound, lactate dehydrogenase (LDH) level in cell culture medium was examined. LDH is released by damaged cells.

[4] = system: TGF-β1/Smad3 downstream target genes (Col I, CTGF, FN1, MMP2, PAI1, α-SMA); assay: Real-time PCR of TGF-β1/Smad3 downstream target genes in hRTECs; assay type: cell-based, human
Method: as §1
Total RNA was extracted using Trizol (Invitrogen). 400 ng of total RNA was reverse transcribed to cDNA using SuperScript III first strand synthesis system (Invitrogen).
Quantitative RT-PCR was performed using 7500 Real-Time PCR System (Applied Biosystems). Gene level was normalized to glyceraldehyde 3-phosphate dehydrogenase (GAPDH) and expressed as fold change. The primer sets used were as follows:
The effects of compounds of the invention on Smad3 phosphorylation and the expression of the downstream target genes of TGF-β/Smad3 pathway was also examined. […]

[5] = target: HIPK2 (Homo sapiens, UniProt Q9H2X6); assay: HIPK2 kinase assay (ProQinase GmbH); assay type: biochemical; design: purchased ProQinase GmbH (Freiburg, Germany), assay service; details: increasing concentrations
HIPK2, sequence (Q9H2X6 whole entry): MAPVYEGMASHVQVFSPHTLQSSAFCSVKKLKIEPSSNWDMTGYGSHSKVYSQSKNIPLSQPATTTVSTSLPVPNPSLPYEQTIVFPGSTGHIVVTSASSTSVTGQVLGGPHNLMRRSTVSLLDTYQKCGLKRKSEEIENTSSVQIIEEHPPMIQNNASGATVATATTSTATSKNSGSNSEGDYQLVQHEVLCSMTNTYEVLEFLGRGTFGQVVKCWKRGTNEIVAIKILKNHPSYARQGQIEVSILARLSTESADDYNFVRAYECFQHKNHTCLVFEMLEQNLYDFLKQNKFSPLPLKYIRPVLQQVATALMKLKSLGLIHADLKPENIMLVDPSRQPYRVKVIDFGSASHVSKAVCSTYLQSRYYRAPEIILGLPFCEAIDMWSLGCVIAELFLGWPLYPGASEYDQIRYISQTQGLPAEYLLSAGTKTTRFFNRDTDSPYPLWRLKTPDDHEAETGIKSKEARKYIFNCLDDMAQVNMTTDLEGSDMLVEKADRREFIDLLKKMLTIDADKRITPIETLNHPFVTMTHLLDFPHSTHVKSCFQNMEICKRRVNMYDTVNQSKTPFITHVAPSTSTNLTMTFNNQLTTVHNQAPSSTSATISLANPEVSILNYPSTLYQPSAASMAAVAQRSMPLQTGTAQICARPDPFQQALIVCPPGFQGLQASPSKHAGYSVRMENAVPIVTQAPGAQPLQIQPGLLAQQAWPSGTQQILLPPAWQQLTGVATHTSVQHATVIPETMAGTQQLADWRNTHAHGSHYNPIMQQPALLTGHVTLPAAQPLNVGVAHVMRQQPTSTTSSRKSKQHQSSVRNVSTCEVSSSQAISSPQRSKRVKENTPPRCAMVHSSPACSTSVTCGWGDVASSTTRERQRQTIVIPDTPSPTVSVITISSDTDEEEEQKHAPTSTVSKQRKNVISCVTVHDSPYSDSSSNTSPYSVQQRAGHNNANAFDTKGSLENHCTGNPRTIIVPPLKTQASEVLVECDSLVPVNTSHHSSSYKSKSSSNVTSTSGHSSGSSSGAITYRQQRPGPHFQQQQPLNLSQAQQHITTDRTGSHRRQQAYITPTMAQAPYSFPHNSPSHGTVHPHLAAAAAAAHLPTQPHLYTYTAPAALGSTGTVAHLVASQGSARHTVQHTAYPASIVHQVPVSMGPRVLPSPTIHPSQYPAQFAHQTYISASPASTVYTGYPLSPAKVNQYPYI
Method: HIPK2 kinase assay was performed by ProQinase GmbH (Freiburg, Germany).
Kinase assay was performed by ProQinase GmbH (Freiburg, Germany).

[6] = Tg26 mice treated from age of 6 weeks for 4 weeks, vs vehicle
[7] = Tg26 mice, post-treatment (week 4), 200 μg/kg/day oral gavage
[8] = Tg26 mice, pre-treatment (week 0)
[9] = Wildtype mice, post-treatment (week 4), 200 μg/kg/day oral gavage
[10] = Wildtype mice, pre-treatment (week 0)

COc1ccc2cc(-c3nc(-c4ccc(Br)cc4)no3)cnc2c1 [Example 1, 3-(4-Bromophenyl)-5-(7-methoxyquinolin-3-yl)-1,2,4-oxadiazole]
Smad3 phosphorylation induced by TGF-β1 [1]: gradually inhibited
Smad3 phosphorylation and α-SMA expression ([2]; Tg26 mice): significantly reduced
kidney injury and renal fibrosis (picrosirius red, Masson's trichrome, Collagen I immunofluorescence) ([2]; Tg26 mice): attenuated kidney injury and renal fibrosis
proteinuria [2, 6]: significantly reduced proteinuria
renal function [2, 6]: improved renal function
BUN [2, 7]: 22.404 ± 4.678 mg/dL
Urinary Albumin:Creatinine Ratio [2, 7]: 19.917 ± 5.838 µg/µg
BUN [2, 8]: 23.799 ± 1.990 mg/dL
Urinary Albumin:Creatinine Ratio [2, 8]: 23.321 ± 12.339 µg/µg
BUN [2, 9]: 18.875 ± 3.485 mg/dL
Urinary Albumin:Creatinine Ratio [2, 9]: 0.036 ± 0.008 µg/µg
BUN [2, 10]: 21.091 ± 3.009 mg/dL
Urinary Albumin:Creatinine Ratio [2, 10]: 0.033 ± 0.007 µg/µg
LDH level in the culture medium [3]: no significant increase
expression of Col I, CTGF, FN1, MMP2, PAI1 and α-SMA (real-time PCR) ([4]; absence of TGF-β1 stimulation): did not affect expression
expression of Col I, CTGF, FN1, MMP2, PAI1 and α-SMA (real-time PCR) ([4]; treated with TGF-β1, increasing concentrations): progressively inhibited
inhibition of HIPK2 kinase activity [5]: No inhibition
